Data from PubChem BioAssay AID2060611 (Molecular Pharmacology Branch, DTP, NCI, 2025).
“And” between values parts separate entries of the source, which are not always exact repeats. Equal values may be shown once.

Tested on: 628569-122-R-J1-PDC complex spheroid viability
Test: Anticancer human tumor 628569-122-R-J1-PDC patient-derived head and neck squamous carcinoma cell line growth inhibition [CLK]
Details: for viability, T/C: stronger effect = lower value
Description: A high-throughput screen of multi-cell type tumor spheroids was designed to identify active combinations of […] and targeted small molecules. Complex spheroids include a stromal component modeled by human endothelial cells (HUVEC) and fibroblasts modeled by human mesenchymal stem cells (MSCs). The concentration ranges selected for each drug and investigational agent were based upon clinically achievable concentrations if the clinical Cmax of the agent was known.
Compounds. The drugs and investigational agents: cirtuvivint (SM08502; NSC835563), CC-671 (NSC850746), vemurafenib (NSC761431), tapotoclax (NSC804041), sotorasib (NSC818433), adagrasib (NSC831453), MRTX-1133 (NSC836407), BAY2416964 (NSC825713), copanlisib (NSC816437), inavolisib (NSC800729), abemaciclib (NSC768073), osimertinib (NSC779217), entinostat (NSC756642), eltanexor (KPT-8602, NSC794443), venetoclax (NSC766270), ceralasertib (NSC777638), bortezomib (NSC756655), olaparib (NSC753686), talazoparib (NSC767125), alisertib (NSC759677), peposertib (NSC802822), gemcitabine (NSC613327), 5-fluorouracil (NSC19893), SN-38 (NSC673596), oxaliplatin (NSC266046), paclitaxel (NSC125973), and doxorubicin (NSC123127), were obtained from the National Cancer Institute (NCI) Developmental Therapeutics Program Chemical Repository. The FDA-approved anticancer drug set is available from the Developmental Therapeutics Program at https://dtp.cancer.gov/organization/dscb/obtaining/available plates.htm. […] The stock solutions were prepared in dimethyl sulfoxide (DMSO, Sigma-Aldrich, St. Louis, MO, cat. D2650), except for the platinum complexes which were prepared in saline (Quality Biological, Gaithersburg, MD, cat. 114-055-101), at 800-fold the tested concentration and stored at -70 degrees C prior to their use. All drugs and investigational agents were tested over a range starting from a high concentration at or near the clinical Cmax and decreasing in half-log increments. If the clinical Cmax for an agent had not been determined, the highest concentration tested was 10 microM.
Cell Culture. All cells were maintained in an incubator at 37 degrees C and 5% CO2 with 95% humidity. The PDC lines were cultured according to standard operating procedures established by the NCI PDMR. Briefly, all PDCs were thawed and cultured in Matrigel-coated flasks prepared with a working solution of 1X Ham's F-12 nutrient mix, without supplementation (Invitrogen, Waltham, MA, cat. 11765054), 100 U/mL penicillin-streptomycin (Invitrogen, cat. 15140122), and 2.5% Matrigel (Corning Inc., Corning, NY, cat. 354248) for the first three passages. The 947758-054-R-J2-PDC line was cultured in 6B/Colon 1A media, which includes advanced DMEM/F-12 (Thermo Fisher Scientific, cat. 12634028), 10 mM HEPES (Thermo Fisher Scientific, cat. 15630080), 1X GlutaMAX supplement (Thermo Fisher Scientific, cat. 35050061), 0.1 mg/mL primocin (InvivoGen, cat. ant-pm-2), 10% defined fetal bovine serum, heat inactivated (HyClone Laboratories Inc., cat. SH30070.03HI), 1.25 mM N-Acetyl-L-cysteine (Sigma-Aldrich, cat. A9165), 10 mM nicotinamide (Sigma-Aldrich, cat. N0636), 1X B-27 supplement (Thermo Fisher Scientific, cat. 17504044), 1X N-2 supplement (Thermo Fisher Scientific, cat. 17502048), and 10 microM Y-27632 dihydrochloride (Tocris Bioscience, cat. 1254). The 876862-298-R-J1-PDC was cultured in 6E media, which includes all 6B/Colon 1A media components plus 50% L-WRN conditioned media (ATCC, cat. CRL-3276), 50 ng/mL recombinant human EGF recombinant protein (hEGF; Thermo Fisher Scientific, cat. PHG0311), 10 ng/mL recombinant human fibroblast growth factor 10 (hGFG-10; PeproTech, cat. 100-26), 1 ng/mL recombinant human fibroblast growth factor 2 (hFGF-2; PeproTech, cat. 100-18B), and 1 µM prostaglandin E2 (PGE2; Tocris, cat. 2296). The 227483-062-R1-J1-PDC line was cultured in Panc media, containing all 6E components except hFGF-2, with the addition of 500 nM SB-431542 (Selleckchem, cat. S1067) and 10 nM gastrin (Tocris, cat. 3006). […]

[1] = curve of first compound, second compound 0.0316 µM
[2] = curve of first compound, second compound 0.1 µM
[3] = curve of first compound, second compound 0.316 µM
[4] = curve of first compound, second compound 1 µM
[5] = curve of first compound, second compound 3.16 µM
[6] = curve of first compound, second compound 10 µM
[7] = second compound 0.0316 µM, first compound 0.0316 µM
[8] = second compound 0.0316 µM, first compound 0.1 µM
[9] = second compound 0.0316 µM, first compound 0.316 µM
[10] = second compound 0.0316 µM, first compound 1 µM
[11] = second compound 0.0316 µM, first compound 3.16 µM
[12] = second compound 0.0316 µM, first compound 10 µM
[13] = second compound 0.1 µM, first compound 0.0316 µM
[14] = second compound 0.1 µM, first compound 0.1 µM
[15] = second compound 0.1 µM, first compound 0.316 µM
[16] = second compound 0.1 µM, first compound 1 µM
[17] = second compound 0.1 µM, first compound 3.16 µM
[18] = second compound 0.1 µM, first compound 10 µM
[19] = second compound 0.316 µM, first compound 0.0316 µM
[20] = second compound 0.316 µM, first compound 0.1 µM
[21] = second compound 0.316 µM, first compound 0.316 µM
[22] = second compound 0.316 µM, first compound 1 µM
[23] = second compound 0.316 µM, first compound 3.16 µM
[24] = second compound 0.316 µM, first compound 10 µM
[25] = second compound 1 µM, first compound 0.0316 µM
[26] = second compound 1 µM, first compound 0.1 µM
[27] = second compound 1 µM, first compound 0.316 µM
[28] = second compound 1 µM, first compound 1 µM
[29] = second compound 1 µM, first compound 3.16 µM
[30] = second compound 1 µM, first compound 10 µM
[31] = second compound 3.16 µM, first compound 0.0316 µM
[32] = second compound 3.16 µM, first compound 0.1 µM
[33] = second compound 3.16 µM, first compound 0.316 µM
[34] = second compound 3.16 µM, first compound 1 µM
[35] = second compound 3.16 µM, first compound 3.16 µM
[36] = second compound 3.16 µM, first compound 10 µM
[37] = second compound 10 µM, first compound 0.0316 µM
[38] = second compound 10 µM, first compound 0.1 µM
[39] = second compound 10 µM, first compound 0.316 µM
[40] = second compound 10 µM, first compound 1 µM
[41] = second compound 10 µM, first compound 3.16 µM
[42] = second compound 10 µM, first compound 10 µM
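Note: spheroids exposed to agents for seven days before readout.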
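Throughout, for viability, T/C: 100% = DMSO vehicle control viability.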

## CC1(C)CCC(CN2CCN(c3ccc(C(=O)NS(=O)(=O)c4ccc(NCC5CCOCC5)c([N+](=O)[O-])c4)c(Oc4cnc5[nH]ccc5c4)c3)CC2)=C(c2ccc(Cl)cc2)C1 + CN1CCN(c2cc(C(=O)Nc3cc4cc(-c5cnn(C)c5)ccc4cn3)ccn2)CC1
[1]
  IC50: > 10000 nM
[2]
  IC50: > 10000 nM
[3]
  IC50: < 31.6 nM
[4]
  IC50: < 31.6 nM
[5]
  IC50: < 31.6 nM
[6]
  IC50: < 31.6 nM
[7]
  viability, T/C: 94%
[8]
  viability, T/C: 105%
[9]
  viability, T/C: 103%
[10]
  viability, T/C: 96%
[11]
  viability, T/C: 97%
[12]
  viability, T/C: 85.6%
[13]
  viability, T/C: 70.8%
[14]
  viability, T/C: 63.6%
[15]
  viability, T/C: 78.5%
[16]
  viability, T/C: 67.7%
[17]
  viability, T/C: 71.1%
[18]
  viability, T/C: 69.5%
[19]
  viability, T/C: 36.1%
[20]
  viability, T/C: 29.7%
[21]
  viability, T/C: 41.3%
[22]
  viability, T/C: 36%
[23]
  viability, T/C: 28.4%
[24]
  viability, T/C: 22.4%
[25]
  viability, T/C: 10.8%
[26]
  viability, T/C: 13.3%
[27]
  viability, T/C: 5.93%
[28]
  viability, T/C: 9.88%
[29]
  viability, T/C: 10.1%
[30]
  viability, T/C: 3.58%
[31]
  viability, T/C: 8.81%
[32]
  viability, T/C: 8.56%
[33]
  viability, T/C: 6.4%
[34]
  viability, T/C: 7.84%
[35]
  viability, T/C: 8.73%
[36]
  viability, T/C: 3.29%
[37]
  viability, T/C: 7.98%
[38]
  viability, T/C: 2.99%
[39]
  viability, T/C: 4.03%
[40]
  viability, T/C: 8.3%
[41]
  viability, T/C: 3.6%
[42]
  viability, T/C: 0.85%

## C=CC(=O)N1CCN(c2nc(=O)n(-c3c(C)ccnc3C(C)C)c3nc(-c4c(O)cccc4F)c(F)cc23)C(C)C1 (stereo not given)
Compound 0.0316 µM
  viability, T/C: 88.8% and 84.2%
Compound 0.1 µM
  viability, T/C: 95.5% and 87.3%
Compound 0.316 µM
  viability, T/C: 92.8% and 92.9%
Compound 1 µM
  viability, T/C: 113% and 101%
Compound 3.16 µM
  viability, T/C: 124% and 132%
Compound 10 µM
  viability, T/C: 118% and 124%
Curve of compound
  IC50: > 10000 nM

## Nc1ccn(C2OC(CO)C(O)C2(F)F)c(=O)n1 (stereo not given) + CNC(=O)c1ccc(Nc2nc(OC3CCCC3)c3c(-c4ccc5nc(C)oc5c4)c[nH]c3n2)c(OC)c1
[1]
  IC50: 200 nM
[2]
  IC50: > 10000 nM
[3]
  IC50: < 31.6 nM
[4]
  IC50: < 31.6 nM
[5]
  IC50: < 31.6 nM
[6]
  IC50: < 31.6 nM
[7]
  viability, T/C: 65.9%
[8]
  viability, T/C: 51.8%
[9]
  viability, T/C: 50.4%
[10]
  viability, T/C: 40.7%
[11]
  viability, T/C: 50.8%
[12]
  viability, T/C: 51.8%
[13]
  viability, T/C: 53.1%
[14]
  viability, T/C: 52.3%
[15]
  viability, T/C: 49.5%
[16]
  viability, T/C: 43.9%
[17]
  viability, T/C: 57.2%
[18]
  viability, T/C: 49.3%
[19]
  viability, T/C: 49.9%
[20]
  viability, T/C: 50.3%
[21]
  viability, T/C: 50.5%
[22]
  viability, T/C: 40.6%
[23]
  viability, T/C: 47.3%
[24]
  viability, T/C: 51.8%
[25]
  viability, T/C: 43.2%
[26]
  viability, T/C: 47%
[27]
  viability, T/C: 42.1%
[28]
  viability, T/C: 35.8%
[29]
  viability, T/C: 32.8%
[30]
  viability, T/C: 45.6%
[31]
  viability, T/C: 45%
[32]
  viability, T/C: 43.6%
[33]
  viability, T/C: 38.2%
[34]
  viability, T/C: 33.5%
[35]
  viability, T/C: 50.3%
[36]
  viability, T/C: 39.5%
[37]
  viability, T/C: 49.3%
[38]
  viability, T/C: 46.1%
[39]
  viability, T/C: 39.5%
[40]
  viability, T/C: 31.3%
[41]
  viability, T/C: 36.6%
[42]
  viability, T/C: 39.8%

## CCN1CCN(Cc2ccc(Nc3ncc(F)c(-c4cc(F)c5nc(C)n(C(C)C)c5c4)n3)nc2)CC1
Compound 0.00316 µM
  viability, T/C: 86.6% and 89.6%
Compound 0.01 µM
  viability, T/C: 81.3% and 70%
Compound 0.0316 µM
  viability, T/C: 73.7% and 72.2%
Compound 0.1 µM
  viability, T/C: 70.1% and 68.2%
Compound 0.316 µM
  viability, T/C: 105% and 79.5%
Compound 1 µM
  viability, T/C: 182% and 142%
Curve of compound
  IC50: > 1000 nM

## CCCS(=O)(=O)Nc1ccc(F)c(C(=O)c2c[nH]c3ncc(-c4ccc(Cl)cc4)cc23)c1F + CNC(=O)c1ccc(Nc2nc(OC3CCCC3)c3c(-c4ccc5nc(C)oc5c4)c[nH]c3n2)c(OC)c1
[1]
  IC50: > 10000 nM
[2]
  IC50: > 10000 nM
[3]
  IC50: > 10000 nM
[4]
  IC50: < 31.6 nM
[5]
  IC50: < 31.6 nM
[6]
  IC50: < 31.6 nM
[7]
  viability, T/C: 85.7%
[8]
  viability, T/C: 86.2%
[9]
  viability, T/C: 72.4%
[10]
  viability, T/C: 90.2%
[11]
  viability, T/C: 91%
[12]
  viability, T/C: 73.5%
[13]
  viability, T/C: 58%
[14]
  viability, T/C: 63.7%
[15]
  viability, T/C: 54%
[16]
  viability, T/C: 57.4%
[17]
  viability, T/C: 62%
[18]
  viability, T/C: 68.4%
[19]
  viability, T/C: 51.7%
[20]
  viability, T/C: 49.9%
[21]
  viability, T/C: 49.7%
[22]
  viability, T/C: 64.8%
[23]
  viability, T/C: 49.6%
[24]
  viability, T/C: 56%
[25]
  viability, T/C: 48%
[26]
  viability, T/C: 42.3%
[27]
  viability, T/C: 43.4%
[28]
  viability, T/C: 45.7%
[29]
  viability, T/C: 52.3%
[30]
  viability, T/C: 50.9%
[31]
  viability, T/C: 43.9%
[32]
  viability, T/C: 42.1%
[33]
  viability, T/C: 46.1%
[34]
  viability, T/C: 44.2%
[35]
  viability, T/C: 53%
[36]
  viability, T/C: 45.7%
[37]
  viability, T/C: 39.7%
[38]
  viability, T/C: 39.1%
[39]
  viability, T/C: 40.8%
[40]
  viability, T/C: 34.7%
[41]
  viability, T/C: 50.4%
[42]
  viability, T/C: 51.1%
